Where two headings read alike, the source gives them in different places. Residues, ends and D or L forms follow the SMILES beside them.
What was measured:
GRB7 SH2 domain = GRB7 SH2 domain (Homo sapiens, UniProt Q14451); experiment: FP saturation binding assay
[1] = target: PIK3R2-NC tandem SH2 domains (Homo sapiens, UniProt O00459); experiment: FP saturation binding assay
PLCG1-C SH2 domain = target: T1, PLCG1-C SH2 domain (Homo sapiens, UniProt P19174); experiment: biochemical; format: binding; conditions: protein PLCG1-C; high-confidence ErbB interactions; mean of replicate hits
T1 construct: The 6X His-tagged SH2 domain proteins used in the assay, PLCG1-C, SHC4, VAV2; thioredoxin; made in house; host or cells: E. coli BL21(DE3)pLysS
T1 sequence (P19174 668-756 limits assumed): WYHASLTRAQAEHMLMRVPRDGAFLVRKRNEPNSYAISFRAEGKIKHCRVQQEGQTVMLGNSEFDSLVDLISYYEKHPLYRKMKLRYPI

[2] = system: 93 human SH2 domains and 2 phosphotyrosine binding (PTB) domains; experiment: FP saturation binding assay, whole domain panel (protein named per line or not at all)
Protocol: (See Figure 1A) Rhodamine-labeled peptides were dissolved in assay buffer (20 mM HEPES, 100 mM KCl, 0.1% Tween-20, 5 mM DTT, pH 7.8), diluted to a concentration of 20 nM, and plated into black 384-well plates (Corning, Corning, NY) at 5 µL/well using a Perkin Elmer EP3 pipetting workstation (V&P Scientific, Inc., San Diego, CA). SH2, PTB, and thioredoxin control proteins were plated into the first column of 2 mL 96-well plates (Corning) at a concentration of 20 µM and serially diluted 1∶2 into freezing buffer (300 mM NaCl, 50 mM Na2PO4, pH 8, 20% glycerol v/v) eleven times using a Tecan Freedom EVO 100 workstation (Tecan, Männedorf, Switzerland). For the interaction assay, 5 µL of each of the twelve protein concentrations was added to the peptide-containing 384-well plates via the EP3 resulting in a protein dilution range of 0.002–10 µM and a final volume of 10 µL; peptide concentration was fixed at 10 nM. Peptide/protein samples were incubated for 20 minutes at room temperature in the dark and fluorescence polarization (FP) was measured in an Analyst GT multimode reader (Molecular Devices, Sunnyvale, CA) with excitation and emission wavelengths of 530 nm and 555 nm, respectively. Experimental values were output as millipolarization (mP) units and imported into MATLAB (The MathWorks, Inc., Natick, MA) in which equation (1) was used to determine dissociation constants (KDs) for each protein/peptide pairing by least squares nonlinear regression. [drawing 1] (1)
To scale up the number of interaction measurements while minimizing variation introduced by human intervention, we utilized an automated robotic platform (Figure 1A; see experimental procedures and Supplementary Methods) to transfer, incubate, and measure the fluorescence polarization (FP) induced from interactions of a titration series of SH2 domains with synthetic rhodamine-labeled ErbB phosphopeptides. Experimental values were output as millipolarization (mP) units and equation (1) was used to fit apparent midpoint dissociation constants (KDs) for each protein/peptide pair using non-linear regression (see experimental procedures).
For this interaction analysis, we synthesized and queried the interaction of phosphopeptides corresponding to 89 of 92 ErbB family intracellular tyrosines with 93 SH2 domains. Because nine peptide sequences share 100% identity between the receptors in the 4 to 7 amino acids C-terminal to the phosphorylated tyrosine, our peptide set consisted of 81 phosphopeptides corresponding to the 89 unique tyrosine containing sequences (Table S2). This peptide set represents a 50% increase over the three PM studies performed to date. We were therefore able to obtain a more systematic and unbiased view of the relative SH2 domain recruitment potential of each receptor. Although most ErbB receptor auto-phosphorylation sites have been detected frequently by mass spectrometry because of their high relative modification stoichiometry, non-auto-phosphorylation sites have been reported less frequently in the literature (Table S3). We reasoned that many physiologically relevant and uncharacterized ErbB tyrosines of low phosphorylation stoichiometry may exist and that our comprehensive interaction analysis might implicate their importance in mediating physiological interactions. We tested the majority of interactions (7099/8160 (87.0%); Figure S3) three or more times and reported standard error for all interactions that were detected in at least three FP runs (Table S4). […] Analysis of this polarization data may be useful for inferring how SH2 proteins bind to different peptide sequences. Larger proteins and proteins binding closer to the N-terminal rhodamine tag of a given peptide would be expected to induce higher maximal polarization (the calculated maximal polarization value at infinite protein concentration) than proteins binding farther from the tag. In addition to phosphopeptides, we queried a representative set of 27 non-phosphopeptides against the entire domain set. […]

SH2 and PTB domains = conditions: ref Kaushansky et al. Mol Biosys 2008, cited from earlier work
Source text: Supplement pone.0044471.s022.xlsx, sheet "Most recent PM interactions" | column: Kd || Supplement pone.0044471.s022.xlsx, sheet "All original PM interactions" | column: Kd

Chain of GRB7 SH2 domain (Q14451 431-527 limits assumed): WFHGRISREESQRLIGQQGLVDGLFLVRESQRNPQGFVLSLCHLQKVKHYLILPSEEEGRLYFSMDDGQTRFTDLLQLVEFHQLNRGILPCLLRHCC
Chain of PIK3R2-NC tandem SH2 domains (O00459 330-716 limits assumed): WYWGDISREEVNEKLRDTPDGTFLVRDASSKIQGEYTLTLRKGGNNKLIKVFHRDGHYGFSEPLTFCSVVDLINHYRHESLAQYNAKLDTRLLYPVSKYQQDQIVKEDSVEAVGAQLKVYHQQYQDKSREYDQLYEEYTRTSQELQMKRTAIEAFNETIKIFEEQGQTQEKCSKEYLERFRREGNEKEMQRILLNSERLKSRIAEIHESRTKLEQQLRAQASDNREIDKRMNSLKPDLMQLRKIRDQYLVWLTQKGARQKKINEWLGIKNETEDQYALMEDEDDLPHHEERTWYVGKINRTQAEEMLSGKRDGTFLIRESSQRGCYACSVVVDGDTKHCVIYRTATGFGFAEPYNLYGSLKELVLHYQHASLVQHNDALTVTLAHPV

Molecule: CSCC[C@H](NC(=O)[C@H](Cc1ccc(O)cc1)NC(=O)[C@H](CCC(=O)O)NC(=O)[C@H](Cc1ccc(OP(=O)(O)O)cc1)NC(=O)[C@H](CCC(=O)O)NC(=O)[C@H](CCC(=O)O)NC(=O)[C@H](CC(=O)O)NC(=O)[C@@H](N)CCC(=O)O)C(=O)N[C@@H](CC(N)=O)C(=O)N[C@@H](CCCNC(=N)N)C(=O)N[C@@H](CCCNC(=N)N)C(=O)N[C@@H](CCCNC(=N)N)C(=O)N[C@@H](CC(=O)O)C(=O)O [ErbB3 pY1197] (HELM PEPTIDE1{E.D.E.E.[O=C([C@H](Cc1ccc(OP(=O)(O)O)cc1)N[*:1])[*:2]].E.Y.M.N.R.R.R.D}$$$$V2.0)
- Kd (GRB7 SH2 domain; KD for GRB7, FP saturation assay): ≤ 0.1 µM

Molecule: CC(C)C[C@H](NC(=O)[C@H](Cc1ccc(OP(=O)(O)O)cc1)NC(=O)[C@H](CC(C)C)NC(=O)[C@@H]1CCCN1C(=O)[C@H](CCC(=O)O)NC(=O)[C@@H](N)CC(N)=O)C(=O)N[C@@H](CC(N)=O)C(=O)N[C@H](C(=O)N[C@@H](Cc1ccccc1)C(=O)N[C@@H](C)C(=O)N[C@@H](CC(N)=O)C(=O)N[C@H](C(=O)N[C@@H](CC(=O)O)C(=O)O)[C@@H](C)O)[C@@H](C)O [ErbB4 1208 13-mer] (HELM PEPTIDE1{N.E.P.L.[O=C([C@H](Cc1ccc(OP(=O)(O)O)cc1)N[*:1])[*:2]].L.N.T.F.A.N.T.D}$$$$V2.0)
- Kd [1]: 11.3 µM
- Kd (GRB7 SH2 domain; Mean KD, protein GRB7, high-confidence ErbB interactions, mean of replicate hits): 8.96 µM
- Kd (PLCG1-C SH2 domain): 5.11 µM

Molecule: IGSQpYLLNWCVQd [ErbB1 pY813, N-terminally rhodamine-labeled 13-mer phosphopeptide]
- interaction with the SH2/PTB domain panel ([2]; KD <= 20 µM counted as interaction): reproducibly interacted at high affinity with many SH2 domains
- SH2 domains found to interact ([2]; high-confidence interactions (Table S11, Figure S14)): interacted with tensin family SH2 domains
- Kd (SH2 and PTB domains; protein ABL2): 200 nM
- Kd (SH2 and PTB domains; protein GRB10): 350 nM
- Kd (SH2 and PTB domains; protein ITK): 310 nM
- Kd (SH2 and PTB domains; protein NCK2): 200 nM
- Kd (SH2 and PTB domains; protein PIK3R1-C): 1850 nM
- Kd (SH2 and PTB domains; protein PIK3R1-NC): 1820 nM
- Kd (SH2 and PTB domains; protein PIK3R3-NC): 1870 nM
- Kd (SH2 and PTB domains; protein RASA1-C): 1950 nM
- Kd (SH2 and PTB domains; protein RASA1-NC): 160 nM
- Kd (SH2 and PTB domains; protein SH2D1B): 1600 nM
- Kd (SH2 and PTB domains; protein SH2D3C): 50 nM
- Kd (SH2 and PTB domains; protein SHB): 280 nM
- Kd (SH2 and PTB domains; protein SHE): 1380 nM
- Kd (SH2 and PTB domains; protein SHF): 1060 nM
- Kd (SH2 and PTB domains; protein SRC): 80 nM
- Kd (SH2 and PTB domains; protein SYK-NC): 240 nM
- Kd (SH2 and PTB domains; protein TENC1): 1150 nM
- Kd (SH2 and PTB domains; protein TNS3): 1890 nM
- Kd (SH2 and PTB domains; protein VAV1): 370 nM
- Kd (SH2 and PTB domains; protein VAV2): 470 nM
- Kd (SH2 and PTB domains; protein VAV3): 960 nM
- Kd (SH2 and PTB domains; protein YES1): 22 nM
